These results are taken from US7550465B2, “Pyrido[3,2-e]pyrazines, their use as inhibitors of phosphodiesterase 10, and processes for preparing them” (Elbion GmbH, priority 2006, dated 2009).

One data set concerns the target PDE10 from pig striatum (Sus scrofa, UniProt A0A287B941). Briefly: Inhibition of PDE10 from pig striatum ([3H]-cAMP SPA). Particulars: for IC50: pig striatum preparation, 0.1 μM [3H]-cAMP, 37° C., 30 minutes. It counts as biochemical. How it is done: (§1) Phosphodiesterase isoenzyme 10 (PDE10) activity was determined in preparations of rat, pig and guinea pig striatum respectively. Striatum from male Wistar rats (180-200 g), male hybrid pigs (150 kg) and male guinea pigs (CRL (HA), 500 g) respectively were collected and frozen at −70° C.
(§2) For the enzymatic testing of PDE10 activity 0.5 g of the isolated and frozen striatum was homogenised in 10 ml 50 mM Tris/Mg-buffer at 4° C. and centrifuged for one hour at 100000 g.
(§3) Nonspecific activity was tested without the enzyme. […] For determination of IC50 values the Hill-plot, 2-parameter-model, was used.

In data set [1] the test system is MK-801-induced hyperactivity and stereotyped sniffing. Description: MK-801-induced psychosis (hyperactivity and stereotyped sniffing). Particulars: p.o., 30 min before test (Example 30: 60 min), female Wistar rats, MK-801 0.1 mg/kg i.p. 10 min before, vs MK-801 control; for dose significantly reversing MK-801-induced hyperactivity: activity recorded 1 h; for dose significantly reversing MK-801-induced stereotyped sniffing: scored 1 h. It counts as in vivo, rat. How it is done:
Female Wistar rats (Crl: (WI) BR, Charles River, Sulzfeld, Germany) weighing 150 to 180 g were used for the MK-801-induced psychosis. Animals were housed under standard conditions in groups of five on a 12 h light/dark cycle (light on at 0600 h) with ad libitum access to food (Pellets, ssniff M/R 15, Spezialdiät GmbH, Soest/Westfalen) and
Hydroxyethylcellulose was solved in distilled water.
MK-801 was solved in saline so that an administration volume of 0.5 ml/100 g was reached. The suspensions and solution were placed on a magnetic stirrer before and during dosing procedures.
The behaviour induced by the NMDA antagonist MK-801 is generally accepted as a rat model of psychosis. MK-801 induces stereotyped sniffing, hyperactivity and ataxia in rats after intraperitoneal administration.
Locomotor activity of the rats was recorded by the MotiTest Apparatus (TSE, Bad Homburg, Germany). The test area consisted of a squared arena (45×45 cm) with protective plexiglass walls (20 cm of height) where rats could freely move. Horizontal movements were recorded by 32 infrared photocells arranged along the bottom of each wall of the arena. The activity [sec] was measured by the computer program “ActiMot” (TSE, Bad Homburg, Germany).
Stereotyped sniffing was scored by the experimenter every five minutes for one hour (12 intervals) according to the method described by Andiné et al. (1999). The scores of the 12 intervals were summed up at the end of the recording time.
The day of experiment the female rats were placed in the laboratory and received the test compound or vehicle at the appropriate time prior to test. MK-801 0.1 mg/kg was intraperitoneally administered 10 minutes prior to test.
At the beginning of the test the rats were placed in the centre of the squared arena of the MotiTest apparatus. Behaviour of the rats was recorded for one hour. After each run animals were removed and the boxes thoroughly cleaned and dried.
Results were analysed by one way analysis of variance (ANOVA). Tukey test was used for individual comparison. P<0.05 was regarded as significant.

Data set [2] concerns the target PDE10 from guinea pig striatum (Cavia porcellus, UniProt A0A286XN47). Description: Inhibition of PDE10 from guinea pig striatum ([3H]-cAMP SPA). In kind it is biochemical. Particulars: guinea pig striatum preparation; 0.1 μM [3H]-cAMP; 37° C., 30 minutes. The procedure: as §1, §2, §3
Another data set addresses T1, PDE10 from rat striatum (Rattus norvegicus, UniProt Q9QYJ6).
T1 construct: from tissue; host or cells: rat striatum (male Wistar rats), homogenate fractions enriched on HiTrap Q HP
T1 sequence (Q9QYJ6 1-794): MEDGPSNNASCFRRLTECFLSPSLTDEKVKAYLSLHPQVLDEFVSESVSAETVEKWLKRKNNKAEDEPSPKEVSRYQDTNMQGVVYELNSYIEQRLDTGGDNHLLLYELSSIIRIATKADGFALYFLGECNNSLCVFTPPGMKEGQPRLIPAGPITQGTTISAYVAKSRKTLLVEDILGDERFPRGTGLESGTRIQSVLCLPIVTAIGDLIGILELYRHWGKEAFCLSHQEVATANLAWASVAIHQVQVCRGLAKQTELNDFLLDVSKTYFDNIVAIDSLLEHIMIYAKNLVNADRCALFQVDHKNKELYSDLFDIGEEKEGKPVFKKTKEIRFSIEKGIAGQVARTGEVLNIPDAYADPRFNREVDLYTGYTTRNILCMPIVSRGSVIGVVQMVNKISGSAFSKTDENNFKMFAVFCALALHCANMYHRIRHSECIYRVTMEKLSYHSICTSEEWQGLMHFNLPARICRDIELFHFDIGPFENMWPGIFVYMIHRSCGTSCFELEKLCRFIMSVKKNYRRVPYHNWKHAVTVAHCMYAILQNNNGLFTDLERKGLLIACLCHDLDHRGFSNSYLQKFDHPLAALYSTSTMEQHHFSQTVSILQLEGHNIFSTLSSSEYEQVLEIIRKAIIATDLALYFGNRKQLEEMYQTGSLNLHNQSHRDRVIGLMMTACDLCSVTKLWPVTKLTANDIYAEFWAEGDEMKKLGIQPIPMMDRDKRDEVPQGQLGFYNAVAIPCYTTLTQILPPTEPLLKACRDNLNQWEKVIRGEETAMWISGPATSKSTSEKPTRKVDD
Briefly: Inhibition of PDE10 from rat striatum ([3H]-cAMP SPA). It counts as biochemical. Particulars: substrate of the enzyme preparation. The procedure:
as §1, §2, §3

Chain of PDE10 from guinea pig striatum (A0A286XN47 1-773): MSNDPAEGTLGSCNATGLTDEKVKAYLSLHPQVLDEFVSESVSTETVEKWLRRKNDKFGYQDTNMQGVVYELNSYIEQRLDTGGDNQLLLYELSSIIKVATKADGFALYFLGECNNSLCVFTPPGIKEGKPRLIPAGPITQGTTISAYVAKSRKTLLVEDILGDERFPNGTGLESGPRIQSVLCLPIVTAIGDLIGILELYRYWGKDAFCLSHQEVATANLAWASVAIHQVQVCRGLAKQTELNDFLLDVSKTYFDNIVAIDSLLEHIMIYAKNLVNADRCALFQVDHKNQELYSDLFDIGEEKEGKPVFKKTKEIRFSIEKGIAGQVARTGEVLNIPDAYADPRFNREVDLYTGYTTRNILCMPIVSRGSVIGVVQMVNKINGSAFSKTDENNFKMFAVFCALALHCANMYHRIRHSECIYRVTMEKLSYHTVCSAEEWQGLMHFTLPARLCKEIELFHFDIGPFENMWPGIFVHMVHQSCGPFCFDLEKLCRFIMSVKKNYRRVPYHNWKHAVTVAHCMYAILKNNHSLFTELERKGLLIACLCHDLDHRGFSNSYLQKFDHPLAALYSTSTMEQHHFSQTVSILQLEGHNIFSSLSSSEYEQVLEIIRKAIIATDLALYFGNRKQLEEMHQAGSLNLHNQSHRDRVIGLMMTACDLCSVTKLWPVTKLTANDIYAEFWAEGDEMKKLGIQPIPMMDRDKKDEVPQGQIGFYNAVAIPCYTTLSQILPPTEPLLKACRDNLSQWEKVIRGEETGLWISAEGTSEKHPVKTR

As a reminder, the IC50 is the concentration that inhibits the measured activity by half. A lower IC50 goes with inhibition by little substance. On PDE10 from pig striatum, “1-propyl-4,8-dimethyl-imidazo[1,5-a]pyrido[3,2-e]pyrazine [Example 53]” registered an IC50 of 43 nM.
In the case of “3,4-dimethyl-8-(piperidin-1-yl)-methoxy-1-propyl-imidazo[1,5-a]pyrido[3,2-e]pyrazine [Example 55]”, in data set [1], the “dose significantly reversing MK-801-induced hyperactivity” value is recorded as 30 mg/kg and the “dose significantly reversing MK-801-induced stereotyped sniffing” value was 30 mg/kg.
As to “4-cyano-8-methoxy-3-methyl-1-ethyl-imidazo[1,5-a]pyrido[3,2-e]pyrazine [Example 30]”, in data set [1], the “dose significantly reversing MK-801-induced hyperactivity” value is given as no less than 10 mg/kg and the “dose significantly reversing MK-801-induced stereotyped sniffing” value is reported as no less than 10 mg/kg.
“8-methoxy-3-methyl-1-propyl-imidazo[1,5-a]pyrido[3,2-e]pyrazine [Example 35]”: in data set [1], the “dose significantly reversing MK-801-induced hyperactivity” value came out at 30 mg/kg and the “dose significantly reversing MK-801-induced stereotyped sniffing” value is listed as no less than 30 mg/kg.
Take “8-methoxy-4-methoxycarbonylamino-3-methyl-1-propyl-imidazo[1,5-a]pyrido[3,2-e]pyrazine [Example 62]”: in data set [1], the “dose significantly reversing MK-801-induced hyperactivity” value worked out at 5 mg/kg and the “dose significantly reversing MK-801-induced stereotyped sniffing” value stood at 5 mg/kg.
For orientation: melting point means the temperature of the solid-liquid transition. `CCCN1CC=C(OC)C2=C1N1CN(OC)C=C1C=N2` [Example 2, 4,8-dimethoxy-1-propyl-imidazo[1,5-a]pyrido[3,2-e]pyrazine] showed a melting point of 113 to 116 °C.
`CCCOC1=C(C)CN(CC)C2=C1N=CC1=CN(OC)CN12` [Example 7, 1-ethyl-8-methoxy-3-methyl-4-propyloxy-imidazo[1,5-a]pyrido[3,2-e]pyrazine] came in with a melting point of 78 to 81 °C.
With `CCCN1CC(C)=C(OC(C)C)C2=C1N1CN(OC)C=C1C=N2` [Example 9, 4-isopropyloxy-8-methoxy-3-methyl-1-propyl-imidazo[1,5-a]pyrido[3,2-e]pyrazine], the melting point was 78 to 80 °C.
The molecule `CCCN1CC(C)=C(SC)C2=C1N1CN(OC)C=C1C=N2` [Example 26, 8-methoxy-3-methyl-4-methylthio-1-propyl-imidazo[1,5-a]pyrido[3,2-e]pyrazine] came in with a melting point of 112 to 115 °C.
As for `CCCc1nc(C)c2c(C#N)nc3ccc(OC)nc3n12` [Example 29, 4-cyano-8-methoxy-3-methyl-1-propyl-imidazo[1,5-a]pyrido[3,2e]pyrazine], the IC50 in data set [2] was determined as 18 nM. Besides, in data set [1], the “dose significantly reversing MK-801-induced stereotyped sniffing” value is no less than 5 mg/kg.
In the case of `CCN1CC(C)=C([S+](C)[O-])C2=C1N1CN(OC)C=C1C=N2` (centres unmarked) [Example 34, 1-ethyl-8-methoxy-3-methyl-4-methylsulfinyl-imidazo[1,5-a]pyrido[3,2-e]pyrazine], the melting point was in the range of 189 to 192 °C.
Same read-out and setting: the value for `CCN1CC(C)=CC2=C1N1CN(OC)C=C1C=N2` [Example 36, 1-ethyl-8-methoxy-3-methyl-imidazo[1,5-a]pyrido[3,2-e]pyrazine] was 159 to 162 °C; that for `CCCN1CC(C)=C(C)C2=C1N1CN(C)C=C1C=N2` [Example 51, 1-propyl-3,4,8-trimethyl-imidazo[1,5-a]pyrido[3,2-e]pyrazine] was 104 to 107 °C.
For the molecule `CCCc1nc(C)c2c(NS(=O)(=O)C(F)(F)F)nc3ccc(OC)nc3n12` [Example 73, 8-methoxy-3-methyl-1-propyl-4-trifluoromethylsulfonylamino-imidazo[1,5a]pyrido[3,2-e]pyrazine], the IC50 on PDE10 from pig striatum turned out to be 19 nM.
In turn, `CCCN1CC(C)=C(NS(=O)(=O)CCC)C2=C1N1CN(OC)C=C1C=N2` [Example 74, 8-methoxy-3-methyl-1-propyl-4-propylsulfonylamino-imidazo[1,5-a]pyrido[3,2-e]pyrazine] displayed a melting point of 203 to 206 °C.
Still for that read-out and setting: the value for `CCCN1CC(C)=C(NS(=O)(=O)c2ccc(C)cc2)C2=C1N1CN(OC)C=C1C=N2` [Example 76, 8-methoxy-3-methyl-4-(4-methylphenylsulfonylamino)-1-propyl-imidazo[1,5-a]pyrido[3,2-e]pyrazine] was 229 to 232 °C; that for `CCCN1CC(C)=C(N(S(=O)(=O)c2ccc(C)cc2)S(=O)(=O)c2ccc(C)cc2)C2=C1N1CN(OC)C=C1C=N2` [Example 77, 4-[N,N-bis-(4-methylphenylsulfonyl)-amino]-8-methoxy-3-methyl-1-propyl-imidazo[1,5-a]pyrido[3,2-e]pyrazine] was 206 to 209 °C.
The same measure, in the same setting: the result for `CON1C=C2C=NC3=C(N(CCC(F)(F)F)CC(C)=C3NS(C)(=O)=O)N2C1` [Example 78, 8-methoxy-3-methyl-1-(3,3,3-trifluoropropyl)-4-methylsulfonylamino-imidazo[1,5-a]pyrido[3,2-e]pyrazine] reads 250 to 253 °C; that for `CON1C=C2C=NC3=C(N2C1)N(c1ccccc1)CC(C)=C3NS(C)(=O)=O` [Example 81, 8-methoxy-3-methyl-1-phenyl-4-methylsulfonylamino-imidazo[1,5-a]pyrido[3,2-e]pyrazine], 217 to 220 °C.
Broadly, the Km is the concentration of substrate that gives half-maximal velocity. For `Nc1nc2c(ncn2[C@@H]2O[C@@H]3COP(=O)(O)O[C@H]3[C@H]2O)c(=O)[nH]1` [cGMP], the Km at PDE10 from rat striatum is 1.8 µM; at PDE10 from pig striatum (substrate of the enzyme preparation), 2.2 µM.
